Measurements reported in patent US7932270B2 (Cytokinetics, Inc., priority 2006, dated 2011).

Each compound was assayed against T1, chicken gizzard smooth muscle myosin subfragment-1 chemically crosslinked to cardiac or skeletal actin (Gallus gallus, UniProt P10587) (assay: Smooth muscle myosin ATPase dose response assay (pyruvate kinase/horseradish peroxidase/pyruvate oxidase-coupled, amplex red fluorescence)). Conditions: read-out: IC50 Arithmetic Mean.
T1 construct: chicken gizzard smooth muscle myosin subfragment-1; from tissue; host or cells: chicken gizzard
T1 sequence (P02607 2-151): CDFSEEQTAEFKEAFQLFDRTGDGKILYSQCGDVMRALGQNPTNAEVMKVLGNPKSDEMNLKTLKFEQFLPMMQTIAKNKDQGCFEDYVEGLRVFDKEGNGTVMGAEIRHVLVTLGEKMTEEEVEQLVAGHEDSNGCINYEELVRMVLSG
T1 sequence (P10587 84-789): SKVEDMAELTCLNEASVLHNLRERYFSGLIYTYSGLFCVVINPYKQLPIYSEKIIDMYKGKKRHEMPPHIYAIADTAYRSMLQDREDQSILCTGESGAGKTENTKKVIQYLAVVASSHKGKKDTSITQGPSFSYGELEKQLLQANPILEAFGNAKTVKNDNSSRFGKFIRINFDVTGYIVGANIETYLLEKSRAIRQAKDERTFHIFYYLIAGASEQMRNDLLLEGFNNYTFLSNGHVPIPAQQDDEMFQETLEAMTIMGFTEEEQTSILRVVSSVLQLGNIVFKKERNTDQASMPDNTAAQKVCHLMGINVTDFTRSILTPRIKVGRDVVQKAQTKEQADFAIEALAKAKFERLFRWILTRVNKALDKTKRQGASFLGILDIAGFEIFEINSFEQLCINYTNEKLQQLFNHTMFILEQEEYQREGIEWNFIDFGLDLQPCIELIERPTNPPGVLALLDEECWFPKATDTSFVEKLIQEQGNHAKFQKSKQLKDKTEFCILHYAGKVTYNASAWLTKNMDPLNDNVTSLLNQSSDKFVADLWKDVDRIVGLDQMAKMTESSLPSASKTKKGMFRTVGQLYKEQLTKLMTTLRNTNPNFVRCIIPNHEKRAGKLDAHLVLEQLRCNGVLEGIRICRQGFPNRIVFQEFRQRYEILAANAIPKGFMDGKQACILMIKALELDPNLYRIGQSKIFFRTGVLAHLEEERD
Format: biochemical
Method in brief: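 Readout is amplex red signal from coupled ATPase of actin-crosslinked gizzard myosin S1 (0.15 mM ATP, 12 mM K-PIPES, pH 7.00). IC50 is the half-maximal activity point of a four-parameter Hill fit.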

**Q.** `CN(C)C(=NCc1cncc(CNC(=O)c2ccc(-c3ccccc3C#N)nc2NCCc2cccc(F)c2)c1)N(C)C` [N-({5-[3,3-bis(dimethylamino)-2-azaprop-2-enyl](3-pyridyl)}methyl)(6-(2-cyanophenyl)-2-{[2-(3-fluorophenyl)ethyl]amino}(3-pyridyl))carboxamide] was tested. Which IC50 did it give?
**A.** 2720 nM

**Q.** `CN(C)C(=NCc1cccc(CNC(=O)c2ccc(-c3ccccc3C#N)nc2NCCc2cccc(F)c2)n1)N(C)C` [N-({6-[3,3-bis(dimethylamino)-2-azaprop-2-enyl](2-pyridyl)}methyl)(6-(2-cyanophenyl)-2-{[2-(3-fluorophenyl)ethyl]amino}(3-pyridyl))carboxamide] was tested. Which IC50 did it give?
**A.** 285 nM

**Q.** Which IC50 does the source give for `NCCNc1cccc(CNC(=O)c2ccc(-c3cn[nH]c3)nc2NCCc2cccc(F)c2)n1` [N-({6-[(2-aminoethyl)amino](2-pyridyl)}methyl)(2-{[2-(3-fluorophenyl)ethyl]amino}-6-pyrazol-4-yl(3-pyridyl))carboxamide] here?
**A.** 20 nM

**Q.** `N#Cc1ccccc1-c1ccc(C(=O)NCc2cccc(NCCN)n2)c(NCCc2cccc(F)c2)n1` [N-({6-[(2-aminoethyl)amino](2-pyridyl)}methyl)(6-(2-cyanophenyl)-2-{[2-(3-fluorophenyl)ethyl]amino}(3-pyridyl))carboxamide] was tested. Which IC50 did it give?
**A.** 7 nM

**Q.** With `NCCCNc1cccc(CNC(=O)c2ccc(-c3cn[nH]c3)nc2NCCc2cccc(F)c2)n1` [N-({6-[(3-aminopropyl)amino](2-pyridyl)}methyl)(2-{[2-(3-fluorophenyl)ethyl]amino}-6-pyrazol-4-yl(3-pyridyl))carboxamide] as the compound, how does the IC50 read?
**A.** 18 nM

**Q.** How did the IC50 turn out when `N#Cc1ccccc1-c1ccc(C(=O)NCc2cccc(NCCCN)n2)c(NCCc2cccc(F)c2)n1` [N-({6-[(3-aminopropyl)amino](2-pyridyl)}methyl)(6-(2-cyanophenyl)-2-{[2-(3-fluorophenyl)ethyl]amino}(3-pyridyl))carboxamide] was run?
**A.** 5 nM

**Q.** With `N#Cc1ccccc1-c1ccc(C(=O)NC[C@H]2CCC(=O)N2CCCCN2C(=O)c3ccccc3C2=O)c(NCCc2cccc(F)c2)n1` [N-({(2R)-1-[4-(1,3-dioxobenzo[c]azolin-2-yl)butyl]-5-oxopyrrolidin-2-yl}methyl)(6-(2-cyanophenyl)-2-{[2-(3-fluorophenyl)ethyl]amino}(3-pyridyl))carboxamide] as the compound, how does the IC50 read?
**A.** 376 nM

**Q.** For `N#Cc1ccccc1-c1ccc(C(=O)NC[C@H]2CCCC(=O)N2CCCCN2C(=O)c3ccccc3C2=O)c(NCCc2cccc(F)c2)n1` [N-({(2R)-1-[4-(1,3-dioxobenzo[c]azolin-2-yl)butyl]-6-oxo(2-piperidyl)}methyl)(6-(2-cyanophenyl)-2-{[2-(3-fluorophenyl)ethyl]amino}(3-pyridyl))carboxamide], which IC50 is on record?
**A.** 791 nM

**Q.** How did the IC50 turn out when `N#Cc1ccccc1-c1ccc(C(=O)NC[C@H]2CCC(=O)N2CCCCCN2C(=O)c3ccccc3C2=O)c(NCCc2cccc(F)c2)n1` [N-({(2R)-1-[5-(1,3-dioxobenzo[c]azolin-2-yl)pentyl]-5-oxopyrrolidin-2-yl}methyl)(6-(2-cyanophenyl)-2-{[2-(3-fluorophenyl)ethyl]amino}(3-pyridyl))carboxamide] was run?
**A.** 266 nM

**Q.** Which IC50 does the source give for `N#Cc1ccccc1-c1ccc(C(=O)NC[C@H]2CCCCN2S(=O)(=O)CCN)c(NCCc2cccc(F)c2)n1` [N-({(2R)-1-[(2-aminoethyl)sulfonyl](2-piperidyl)}methyl)(6-(2-cyanophenyl)-2-{[2-(3-fluorophenyl)ethyl]amino}(3-pyridyl))carboxamide] here?
**A.** 178 nM

**Q.** How did the IC50 turn out when `N#Cc1ccccc1-c1ccc(C(=O)NC[C@H]2CCCN2S(=O)(=O)CCN)c(NCCc2cccc(F)c2)n1` [N-({(2R)-1-[(2-aminoethyl)sulfonyl]pyrrolidin-2-yl}methyl)(6-(2-cyanophenyl)-2-{[2-(3-fluorophenyl)ethyl]amino}(3-pyridyl))carboxamide] was run?
**A.** 71 nM

**Q.** How did the IC50 turn out when `N#Cc1ccccc1-c1ccc(C(=O)NC[C@H]2CCCCN2S(=O)(=O)CCCN)c(NCCc2cccc(F)c2)n1` [N-({(2R)-1-[(3-aminopropyl)sulfonyl](2-piperidyl)}methyl)(6-(2-cyanophenyl)-2-{[2-(3-fluorophenyl)ethyl]amino}(3-pyridyl))carboxamide] was run?
**A.** 370 nM

**Q.** How did the IC50 turn out when `N#Cc1ccccc1-c1ccc(C(=O)NC[C@H]2CCCN2S(=O)(=O)CCCN)c(NCCc2cccc(F)c2)n1` [N-({(2R)-1-[(3-aminopropyl)sulfonyl]pyrrolidin-2-yl}methyl)(6-(2-cyanophenyl)-2-{[2-(3-fluorophenyl)ethyl]amino}(3-pyridyl))carboxamide] was run?
**A.** 234 nM

**Q.** Which IC50 does the source give for `N#Cc1ccccc1-c1ccc(C(=O)NCCOCCN)c(NCCc2cccc(F)c2)n1` [N-[2-(2-aminoethoxy)ethyl](6-(2-cyanophenyl)-2-{[2-(3-fluorophenyl)ethyl]amino}(3-pyridyl))carboxamide] here?
**A.** 1620 nM

**Q.** How did the IC50 turn out when `CC(C)(C)OC(=O)N[C@@H](CCCN)C(=O)N1CC[C@@H]1CNC(=O)c1ccc(-c2ccccc2C#N)nc1NCCc1cccc(F)c1` [N-[2-((2R)-2-([(6-(2-cyanophenyl)-2-{[2-(3-fluorophenyl)ethyl]amino}(3-pyridyl))carbonylamino]methyl}azetidinyl)(1S)-1-(3-aminopropyl)-2-oxoethyl](tert-butoxy)carboxamide] was run?
**A.** 1350 nM

**Q.** For `Cn1cc(-c2nc(NCCc3cccc(F)c3)c(C(=O)NC[C@H]3CCCN3C(=O)[C@H](CO)NC(=O)OC(C)(C)C)cc2F)cn1` [N-[2-((2R)-2-{[(5-fluoro-2-{[2-(3-fluorophenyl)ethyl]amino}-6-(1-methylpyrazol-4-yl)(3-pyridyl))carbonylamino]methyl}pyrrolidinyl)(1S)-1-(hydroxymethyl)-2-oxoethyl](tert-butoxy)carboxamide], which IC50 is on record?
**A.** 1200 nM

**Q.** How did the IC50 turn out when `C[C@H](NC(=O)OC(C)(C)C)C(=O)N1CCC[C@@H]1CNC(=O)c1cc(F)c(-c2cnn(C)c2)nc1NCCc1cccc(F)c1` [N-[2-((2R)-2-{[(5-fluoro-2-{[2-(3-fluorophenyl)ethyl]amino}-6-(1-methylpyrazol-4-yl)(3-pyridyl))carbonylamino]methyl}pyrrolidinyl)(1S)-1-methyl-2-oxoethyl](tert-butoxy)carboxamide] was run?
**A.** 1950 nM

**Q.** With `CC(C)(C)OC(=O)N[C@@H](CO)C(=O)N1CC[C@@H]1CNC(=O)c1ccc(-c2ccccc2C#N)nc1NCCc1cccc(F)c1` [N-[2-((2R)-2-{[(6-(2-cyanophenyl)-2-{[2-(3-fluorophenyl)ethyl]amino}(3-pyridyl))carbonylamino]methyl}azetidinyl)(1S)-1-(hydroxymethyl)-2-oxoethyl](tert-butoxy)carboxamide] as the compound, how does the IC50 read?
**A.** 2480 nM

**Q.** Which IC50 does the source give for `C[C@H](NC(=O)OC(C)(C)C)C(=O)N1CCC[C@@H]1CNC(=O)c1ccc(-c2ccccc2C#N)nc1NCCc1cccc(F)c1` [N-[2-((2R)-2-{[(6-(2-cyanophenyl)-2-{[2-(3-fluorophenyl)ethyl]amino}(3-pyridyl))carbonylamino]methyl}pyrrolidinyl)(1S)-1-methyl-2-oxoethyl](tert-butoxy)carboxamide] here?
**A.** 3260 nM

**Q.** With `CN(C)CCNC(=O)c1ccc(-c2ccccc2C#N)nc1NCCc1cccc(F)c1` [N-[2-(dimethylamino)ethyl](6-(2-cyanophenyl)-2-{[2-(3-fluorophenyl)ethyl]amino}(3-pyridyl))carboxamide] as the compound, how does the IC50 read?
**A.** 4220 nM

**Q.** `CN(C)CCNC(=O)CNC(=O)c1ccc(-c2ccccc2C#N)nc1NCCc1cccc(F)c1` [N-[2-(dimethylamino)ethyl]-2-[(6-(2-cyanophenyl)-2-{[2-(3-fluorophenyl)ethyl]amino}(3-pyridyl))carbonylamino]acetamide] was tested. Which IC50 did it give?
**A.** 9310 nM

**Q.** Which IC50 does the source give for `Cn1cc(-c2nc(NCCc3cccc(F)c3)c(C(=O)NC[C@H]3CCC(=O)N3CCCNC(=O)OC(C)(C)C)cc2C#N)cn1` [N-[3-((5R)-5-{[(5-cyano-2-{[2-(3-fluorophenyl)ethyl]amino}-6-(1-methylpyrazol-4-yl)(3-pyridyl))carbonylamino]methyl}-2-oxopyrrolidinyl)propyl](tert-butoxy)carboxamide] here?
**A.** 1150 nM

**Q.** Which IC50 does the source give for `Cc1cc(C(=O)NC[C@H]2CCC(=O)N2CCCNC(=O)OC(C)(C)C)c(NCCc2cccc(F)c2)nc1-c1ccccc1C#N` [N-[3-((5R)-5-{[(6-(2-cyanophenyl)-2-{[2-(3-fluorophenyl)ethyl]amino}-5-methyl(3-pyridyl))carbonylamino]methyl}-2-oxopyrrolidinyl)propyl](tert-butoxy)carboxamide] here?
**A.** 5370 nM

**Q.** `CN(C)CCCNC(=O)CNC(=O)c1ccc(-c2ccccc2C#N)nc1NCCc1cccc(F)c1` [N-[3-(dimethylamino)propyl]-2-[(6-(2-cyanophenyl)-2-{[2-(3-fluorophenyl)ethyl]amino}(3-pyridyl))carbonylamino]acetamide] was tested. Which IC50 did it give?
**A.** 12200 nM

**Q.** With `CC(=O)N1CCCC(CNC(=O)c2ccc(-c3ccccc3)nc2NCCc2ccccn2)C1` (stereo not drawn) [N-[(1-acetyl(3-piperidyl))methyl]{6-phenyl-2-[(2-(2-pyridyl)ethyl)amino](3-pyridyl)}carboxamide] as the compound, how does the IC50 read?
**A.** 48400 nM

**Q.** Which IC50 does the source give for `CC(=O)N1CCC(CNC(=O)c2ccc(-c3ccccc3C#N)nc2NCCc2cccc(F)c2)CC1` [N-[(1-acetyl(4-piperidyl))methyl](6-(2-cyanophenyl)-2-{[2-(3-fluorophenyl)ethyl]amino}(3-pyridyl))carboxamide] here?
**A.** 1700 nM

**Q.** How did the IC50 turn out when `CC(=O)N1CCC(CNC(=O)c2ccc(-c3ccccc3)nc2NCCc2ccccn2)CC1` [N-[(1-acetyl(4-piperidyl))methyl]{6-phenyl-2-[(2-(2-pyridyl)ethyl)amino](3-pyridyl)}carboxamide] was run?
**A.** 96700 nM

**Q.** `CC(=O)N1CCC(CNC(=O)c2ccc(-c3ccccc3C#N)nc2NCCc2cccc(F)c2)C1` (stereo not drawn) [N-[(1-acetylpyrrolidin-3-yl)methyl](6-(2-cyanophenyl)-2-{[2-(3-fluorophenyl)ethyl]amino}(3-pyridyl))carboxamide] was tested. Which IC50 did it give?
**A.** 334 nM

**Q.** How did the IC50 turn out when `Cn1ccc(CNC(=O)c2ccc(-c3ccccc3)nc2NCCc2ccccn2)n1` [N-[(1-methylpyrazol-3-yl)methyl]{6-phenyl-2-[(2-(2-pyridyl)ethyl)amino](3-pyridyl)}carboxamide] was run?
**A.** 2730 nM

**Q.** How did the IC50 turn out when `Cn1nccc1CNC(=O)c1ccc(-c2ccccc2)nc1NCCc1ccccn1` [N-[(1-methylpyrazol-5-yl)methyl]{6-phenyl-2-[(2-(2-pyridyl)ethyl)amino](3-pyridyl)}carboxamide] was run?
**A.** 1300 nM
